Results taken from article PMC6154613, “Investigation of the Anti-Leishmania (Leishmania) infantum Activity of Some Natural Sesquiterpene Lactones” (Molecules : A Journal of Synthetic Chemistry and Natural …, 2017).

Legend:
[1] = system: L. (L.) infantum promastigotes; experiment: Anti-promastigote activity, MTT viability assay; type: cell-based, Leishmania (Leishmania) infantum; settings: for IC50: Leishmania infantum, 48 h incubation, MTT, value (SD)
Experimental: (§1) L. (L.) infantum (MHOM/BR/1972/LD) promastigotes were maintained in M-199 medium supplemented with 10% heat-inactivated fetal bovine serum (FBS) (Gibco, Thermo Fisher Scientific, São Paulo, Brazil), 0.25% hemin (Sigma-Aldrich), and 5% human urine at 24 °C. Amastigotes were obtained from the spleen of previously infected hamsters by differential centrifugation. Macrophages were collected from the peritoneal cavity of BALB/c mice by washing with RPMI-1640 medium supplemented with 10% FBS, and were maintained at 37 °C in a 5% CO2-humidified incubator. Murine fibroblasts NCTC (clone L929 ATCC) were used to evaluate the cytotoxicity of the tested compounds. NCTC cells were maintained in M-199 medium supplemented with 10% FBS and 20 μg/mL gentamicin at 37 °C in a 5% CO2-humidified incubator.
Compounds were dissolved in DMSO and diluted in M-199 medium in 96-well microplates, with the highest concentration of 150 μM. Promastigotes of L. (L.) infantum in the late growth-phase were seeded at 1 × 10^6/well and incubated with the compounds for 48 h. The viability of cells was determined using the MTT assay. An internal control group was used with 0.5% DMSO (maximal concentration). Miltefosine was used as standard drug.
(§2) Data processing and statistical analyses was done with GraphPad Prism® 5.0 (GraphPad Software, Inc. La Jolla, CA, USA). For determination of antileishmanial activity and NCTC cytotoxicity, the IC50 and CC50 values were calculated after normalization using sigmoidal dose-response curves. The evaluation of statistical significance of multiple pairs was done with a Tukey's range test, which corrects for the increased probability of a type I error during multiple comparison.

[2] = Mammalian cytotoxicity, MTT assay; type: cell-based, murine; settings: mouse, NCTC murine fibroblasts, 48 h, MTT, value (SD); for CC50 at 48 h: NCTC clone L929 fibroblasts
Experimental: as §1
(§3) NCTC cells were seeded at 6 × 10^4 in 96-well microplates and incubated with the compounds for 48 h. An internal control group was used with 0.5% DMSO (maximal concentration). The quantification of viable cells was assessed by the MTT assay. The selectivity index (SI) was determined using the following equation: SI = CC50 in NCTC cells / IC50 against amastigotes.
as §2

[3] = system: L. (L.) infantum intracellular amastigotes; experiment: Activity against intracellular amastigotes in peritoneal macrophages, Giemsa staining and light microscopy; type: cell-based, Leishmania (Leishmania) infantum; settings: for IC50: Leishmania infantum, Peritoneal macrophage, intracellular amastigotes in murine peritoneal macrophages, 120 h, highest concentration 100 μM, value (SD)
Experimental: as §1
Murine peritoneal macrophages were collected from the peritoneal cavity of BALB/c mice, and the macrophages were seeded at 1 × 10^5/well for 24 h in a 16-well slide. Amastigotes were prepared (as described previously), seeded at a ratio 1:10 (macrophages:amastigotes) and kept at 37 °C in a 5% CO2-humidified incubator for 24 h. Test compounds were incubated to the highest concentration of 100 μM with infected macrophages for 120 h. Miltefosine was used as a standard drug. Subsequently, the cells were fixed with methanol, stained with Giemsa (Merck KGaA, Darmstadt, Germany), and observed using a light microscope. The parasite burden was determined by the number of infected macrophages out of 400 cells.
as §2

[4] = system: Murine fibroblasts NCTC (clone L929 ATCC); experiment: Mammalian cytotoxicity, MTT assay; type: cell-based; settings: NCTC cells
Experimental: as §1, §3, §2

[5] = system: L. (L.) infantum promastigotes plasma membrane; experiment: Plasma membrane permeability, SYTOX Green; type: cell-based, Leishmania (Leishmania) infantum; settings: 3 and 6 μM, 60 min, compared with untreated parasites
Experimental: Late-growth-phase (non-stationary) promastigotes were incubated with the probe SYTOX Green (Molecular Probes Inc., Eugene, OR, USA), as previously described. […] 1 was added at 3 and 6 μM to 1 × 10^6 cells/well, at 24 °C. The fluorescence was measured every 20 min (0–80 min). At the end of the assay (80 min), 0.1% Triton X-100 was added to all wells to obtain the maximum permeabilization of parasites. Fluorescence intensity was determined using a fluorimetric microplate reader (FilterMax F5 Multi-Mode Microplate Reader-Molecular Devices, Sunnyvale, CA, USA) with excitation and emission wavelengths of 485 and 520 nm, respectively. The following internal controls were used during the evaluation: (i) the background fluorescence of the compound at the respective wavelengths; (ii) the possible interference of DMSO; (iii) untreated promastigotes; and (iv) medium without any cells. Samples were tested in duplicate.

[6] = system: L. (L.) infantum promastigotes; experiment: Mitochondrial membrane potential, rhodamine 123, flow cytometry; type: cell-based, Leishmania (Leishmania) infantum; settings: 6 μM, 1 h, compared with untreated parasites
Experimental: The Δψm and ROS content of promastigotes treated with compound 1 were determined using the fluorescence probes rhodamine 123 and H2DCFDA (Molecular Probes Inc., Eugene, OR, USA), respectively, and further evaluated by flow cytometry. […] The parasites were incubated in HANKS’ balanced salts solution (HBSS; Sigma-Aldrich, Carlsbad, CA, USA), supplemented with 10 mM D-Glucose, at 26 °C for 1 h. Afterwards the parasites were washed and stained with rhodamine 123 (0.3 μg/mL) or H2DCFDA (5 μM) for 15 min under absence of light. The washed parasites were resuspended in PBS and the fluorescence was measured in a Flow Cytometer Attune Nxt (ThermoFisher Scientific, Waltham, MA, USA) using the forward scatter (FSC, relative cell size) and the side scatter detectors (SSC, cell granulometry or internal complexity), FL1-A (detecting fluorescence emission 530 ± 15 nm), and Attune Nxt software. As control, untreated promastigotes (not stained with Rd123 or H2DCFDA) served to monitor the basal fluorescence. […] Samples were tested in duplicate. Two independent assays were performed.

[7] = system: L. (L.) infantum promastigotes; experiment: ROS production, H2DCFDA, flow cytometry; type: cell-based, Leishmania (Leishmania) infantum
Experimental: The Δψm and ROS content of promastigotes treated with compound 1 were determined using the fluorescence probes rhodamine 123 and H2DCFDA (Molecular Probes Inc., Eugene, OR, USA), respectively, and further evaluated by flow cytometry. Briefly, 2 × 10^6 promastigotes/well cultured until the late growth-phase were treated with […] of 1 (corresponding to the IC99 value obtained with 1 × 10^6 parasites/well). The parasites were incubated in HANKS’ balanced salts solution (HBSS; Sigma-Aldrich, Carlsbad, CA, USA), supplemented with 10 mM D-Glucose, at 26 °C for 1 h. Afterwards the parasites were washed and stained with rhodamine 123 (0.3 μg/mL) or H2DCFDA (5 μM) for 15 min under absence of light. The washed parasites were resuspended in PBS and the fluorescence was measured in a Flow Cytometer Attune Nxt (ThermoFisher Scientific, Waltham, MA, USA) using the forward scatter (FSC, relative cell size) and the side scatter detectors (SSC, cell granulometry or internal complexity), FL1-A (detecting fluorescence emission 530 ± 15 nm), and Attune Nxt software. As control, untreated promastigotes (not stained with Rd123 or H2DCFDA) served to monitor the basal fluorescence. […] Samples were tested in duplicate. Two independent assays were performed.

[8] = system: peritoneal macrophages of BALB/c mice; experiment: Nitric oxide production in macrophages, Griess assay; type: cell-based, Mus musculus; settings: 3 μM, 24 h, similar levels as LPS
Experimental: The NO production of macrophages treated with 1 was performed using the Griess assay. Briefly, 1 × 10^5/well peritoneal macrophages of BALB/c mice were seeded overnight in a 96-well plate. Fresh medium containing compound 1 at 3 µM (corresponding to the CC25 value obtained with NCTC cells) or 5 µg/mL LPS (positive control) were added and incubated for 24 h at 37 °C. Afterwards the NO content of each of the cultures’ supernatant was analysed using the Griess assay. The samples’ NO content was determined by means of a standard curve prepared with NaNO2 at concentrations from 0 to 400 μM.

[9] = system: L. (L.) infantum promastigotes; experiment: Ultrastructural analysis by transmission electron microscopy; type: cell-based, Leishmania (Leishmania) infantum; settings: 0.5-4 h incubation; 1 μM or 120 μM
Experimental: Ultrastructural studies were performed with promastigotes treated with compound 1 by TEM. L. (L.) infantum promastigotes in the late growth phase were washed and incubated with 120 μM of 1 (corresponding to the IC99 value obtained with 1 × 10^6 parasites/well) at 2 × 10^7/well in 200 μL M-199 medium. Compound incubation was performed for 0.5, 1, 2, 3, and 4 h under the previously described growth conditions. After centrifugation at 2800 rpm for 10 min, the parasites were fixed with 1 mL glutaraldehyde and the sample processing was performed according to Duarte et al.. The TEM imaging was performed on a JEOL 1011 transmission electron microscope (Peabody, MA, USA).

L. (L.) mexicana = system: L. (L.) mexicana; design: method as in PMID 18576826; settings: cited from earlier work
[10] = system: axenic amastigotes (extracellular) of L. (L.) amazonensis; design: method as in PMID 24913205; settings: cited from earlier work

SMILES | IC50 [1] [µM] | CC50 at 48 h [2] [µM] | IC50 [3] [µM] | CC50 [2] [µM] | further results
C=C1C(=O)O[C@@H]2C[C@@]3(C)CCC[C@H](C)C3=C[C@H]12 [Alantolactone (5), Alantolactone] | 9.94 | 11 |  |  | 
C=C1C(=O)O[C@@H]2[C@H]3C(C)=CC[C@@]34O[C@@]4(C)CC[C@@H]12 [Arglabin (3), Arglabin] | 30 |  | 7.33 | 39.4 | 
C=C1C(=O)O[C@@H]2/C=C(/CO)C3=CC(=O)[C@@](C)(C[C@@H](OC(=O)/C(C)=C/C)[C@@H]12)O3 [Budlein A (7), Budlein A] | 28 |  |  | 9.05 | 
C=C(CO)C(=O)O[C@H]1CC(=C)[C@@H]2C[C@H](O)C(=C)[C@@H]2[C@H]2OC(=O)C(=C)[C@@H]21 [Cynaropicrin (4), Cynaropicrin] | 30.6 | 33.5 | 6.88 |  | 
C=C1C(=O)OC2CC(C)C3C=CC(=O)C3(C)C(OC(C)=O)C12 (centres unmarked) [Helenalin acetate (1), Helenalin acetate] | 3.53 |  | 1.15 | 8.12 | IC99 value ([1]; promastigotes, 1 × 10^6 parasites/well): 6 µM; infection of macrophages (light microscopy) ([3]; 0.33 µM, Figure S1c): relatively high amastigote number; infection of macrophages (light microscopy) ([3]; 1 µM, Figure S1b): A large number of infected macrophages is visible; infection of macrophages (light microscopy) ([3]; 3 µM, Figure S1a): very few infected macrophages with each very few amastigotes; CC25 value [4]: 3 µM; SYTOX Green fluorescence (plasma membrane permeability) [5]: No significant increase of SYTOX Green fluorescence; decrease of Rd123 fluorescence (Δψm) [6]: 60%; ROS production (H2DCFDA) ([7]; compound 1, 1 h of treatment): no alteration of ROS; production of NO [8]: significantly increased the production of NO; ultrastructural alterations (TEM) [9]: intense cytoplasmatic vacuolization, formation of autophagosomes, swelling of the mitochondrion, and chromatin decondensation; alteration of the plasma membrane (L. (L.) mexicana; L. (L.) mexicana promastigotes, long-term treatment): no alteration of the plasma membrane
C=C1C(=O)O[C@H]2C[C@@H](C)[C@@H]3C=CC(=O)[C@@]3(C)[C@H](O)[C@H]12 [Mexicanin I (2), Mexicanin I] | 4.89 |  | 1.73 | 9.2 | activity against L. (L.) mexicana (L. (L.) mexicana): activity against L. (L.) mexicana at low concentrations
CCCCCCCCCCCCCCCCOP(=O)([O-])OCC[N+](C)(C)C [Miltefosine, reference compound] | 16.7 |  |  |  | 
C=C1C(=O)O[C@H]2[C@H]1CC/C(C)=C/CC[C@@]1(C)O[C@@H]21 [Parthenolide (6), Parthenolide] | 59.1 | 58.2 | 89.2 |  | effect on mitochondrial membrane potential [10]: mitochondrial depolarization
C=C1C(=O)O[C@@H]2C[C@@H](C)[C@@H]3C=CC(=O)[C@@]3(C)[C@@H](O)[C@H]12 [helenalin, reference compound] |  |  |  |  | activity against L. (L.) mexicana (L. (L.) mexicana): activity against L. (L.) mexicana at low concentrations
CC[C@H]1/C=C/C=C/C[C@@H](C)[C@H](O)[C@@](C)(O)C(=O)[C@@H](C)[C@H](O)[C@@H](C)C(=O)[C@@H](C)[C@H](O)[C@@H](C)/C=C/C(=O)O[C@@H]2[C@H](C)[C@H](CC1)O[C@]1(CC[C@H](C)[C@H](C[C@@H](C)O)O1)[C@H]2C [oligomycin, reference compound] |  |  |  |  | ROS production (H2DCFDA) ([7]; oligomycin 20 μM, positive control): increased the ROS production over time
